This note sets out measurements from patent US20160046618A1, “Cyclopropyl Fused Thiazin-2-Amine Compounds as Beta-Secretase Inhibitors and Methods of Use” (AMGEN INC., priority 2014, published 2016).

One assay deals with Recombinant Cat D (Homo sapiens (Human), UniProt P07339). Put plainly: In vitro enzymatic Cathepsin D (Cat D) FRET assay. It counts as biochemical. The conditions noted are these: read-out: IC50 IP (μM) CatD. The procedure, abridged: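 Assay pH is 3.5 (0.05 M citrate, 5 mM CHAPS, 10% DMSO final) with Cat D from CHO cells. A 20 nM quenched peptide substrate is cleaved over one hour; the reaction is ended with Tris and read by fluorescence (ex 500, em 580 nm).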
Sequence of Recombinant Cat D (P07339 65-412): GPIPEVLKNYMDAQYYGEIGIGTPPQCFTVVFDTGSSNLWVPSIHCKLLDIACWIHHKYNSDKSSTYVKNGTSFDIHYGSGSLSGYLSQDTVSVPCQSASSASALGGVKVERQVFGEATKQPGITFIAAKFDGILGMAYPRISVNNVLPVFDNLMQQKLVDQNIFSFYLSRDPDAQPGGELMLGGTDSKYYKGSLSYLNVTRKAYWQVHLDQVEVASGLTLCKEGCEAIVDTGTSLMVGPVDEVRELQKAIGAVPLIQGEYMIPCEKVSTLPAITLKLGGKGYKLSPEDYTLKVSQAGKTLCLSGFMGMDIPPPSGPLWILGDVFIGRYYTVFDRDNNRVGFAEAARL

A further assay deals with human recombinant BACE2 (Homo sapiens (Human), UniProt Q9Y5Z0). Put plainly: In vitro enzymatic BACE2 FRET assay. It counts as biochemical. The conditions noted are these: read-out: IC50 IP (μM) BACE2 enzyme. The method, boiled down:
(§1)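 FRET cleavage assay using Ni-NTA-purified recombinant protease and 50 nM quenched peptide substrate, 1 h. Stopped by neutralising with Tris; fluorescence at 488/590 nm.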

In assay [1] the test system is Aβ40 in conditioned medium of cells stably expressing Amyloid Precursor Protein (APP). Put plainly: In vitro BACE-1 cell-based assay (Aβ40 sandwich ELISA). The conditions noted are these: read-out: IC50 IP (μM) BACE1 cell. The procedure, abridged: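 APP-stable cells, pre-cultured 24 h at 37° C in DMEM/10% FBS, were treated 24 h with compound in a 10-point series starting at 100 μM or 10 μM (0.1% DMSO final). Secreted Aβ40 in conditioned medium was measured by pAb40/biotin-6E10 sandwich ELISA with Europium time-resolved fluorescence; IC50 from percent inhibition versus concentration.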
Background: ELISA stands for enzyme-linked immunosorbent assay.

A further assay has as its target human recombinant BACE1 (Homo sapiens (Human), UniProt P56817). Nature of the assay: In vitro enzymatic BACE1 FRET assay. It counts as biochemical. The conditions noted are these: read-out: IC50 IP (μM) BACE1 enzyme. The method, boiled down: as §1

Read-outs that look alike come from different tables or passages of the source.

Sequence of human recombinant BACE2 (Q9Y5Z0 63-518): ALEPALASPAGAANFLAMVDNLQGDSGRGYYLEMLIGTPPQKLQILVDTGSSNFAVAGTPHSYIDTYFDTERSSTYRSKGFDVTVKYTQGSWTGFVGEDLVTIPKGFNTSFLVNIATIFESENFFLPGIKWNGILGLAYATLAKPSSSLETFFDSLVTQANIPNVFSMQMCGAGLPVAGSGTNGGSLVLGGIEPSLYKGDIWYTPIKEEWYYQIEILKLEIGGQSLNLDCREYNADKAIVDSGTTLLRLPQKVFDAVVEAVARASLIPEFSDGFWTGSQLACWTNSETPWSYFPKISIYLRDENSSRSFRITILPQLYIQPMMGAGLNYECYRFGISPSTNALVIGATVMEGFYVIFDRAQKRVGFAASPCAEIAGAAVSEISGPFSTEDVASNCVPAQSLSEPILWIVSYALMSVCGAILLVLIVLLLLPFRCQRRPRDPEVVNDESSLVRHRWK
Sequence of human recombinant BACE1 (P56817 46-501): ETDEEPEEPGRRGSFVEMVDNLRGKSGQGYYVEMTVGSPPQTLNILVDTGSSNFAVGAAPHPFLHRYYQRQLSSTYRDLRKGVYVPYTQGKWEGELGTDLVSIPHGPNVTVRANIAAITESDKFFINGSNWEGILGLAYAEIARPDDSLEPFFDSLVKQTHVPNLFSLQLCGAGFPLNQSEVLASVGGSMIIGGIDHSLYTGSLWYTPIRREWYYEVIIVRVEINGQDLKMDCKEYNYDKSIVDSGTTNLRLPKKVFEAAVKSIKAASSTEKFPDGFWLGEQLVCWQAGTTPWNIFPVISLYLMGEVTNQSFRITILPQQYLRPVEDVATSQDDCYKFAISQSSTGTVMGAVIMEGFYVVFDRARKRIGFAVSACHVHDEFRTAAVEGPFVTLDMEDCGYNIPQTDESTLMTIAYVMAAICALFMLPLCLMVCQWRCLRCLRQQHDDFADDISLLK

For orientation: IC50 means the concentration needed to halve the response being measured. For `C[C@]1(c2cc(Nc3nccc4nc(OCc5ncco5)cnc34)cc(F)c2F)N=C(N)S[C@@]2(S(C)(=O)=O)C[C@H]21` [Example 747, (1R,5S,6S)-5-(2,3-difluoro-5-((2-(oxazol-2-ylmethoxy)pyrido[3,4-b]pyrazin-5-yl)amino)phenyl)-5-methyl-1-(methylsulfonyl)-2-thia-4-azabicyclo[4.1.0]hept-3-en-3-amine], the IC50 on Recombinant Cat D is 1190 µM; at human recombinant BACE2 it was 0.0115 µM; in assay [1] it was 0.0123 µM; on human recombinant BACE1, 0.00242 µM.

On to `C#CCOc1cnc2c(Nc3cnc(OC)c([C@@]4(C)N=C(N)S[C@@]5(CF)C[C@H]54)c3)nccc2n1` [Example 611, N-(5-((1S,5S,6S)-3-amino-1-(fluoromethyl)-5-methyl-2-thia-4-azabicyclo[4.1.0]hept-3-en-5-yl)-6-methoxy-3-pyridinyl)-2-(2-propyn-1-yloxy)pyrido[3,4-b]pyrazin-5-amine], for which the IC50 at Recombinant Cat D was more than 400 µM; at human recombinant BACE2, 0.208 µM; in assay [1] it was 0.00649 µM; on human recombinant BACE1, 0.00663 µM.

For the molecule `C[C@]1(c2cc(NC(=O)c3ccc(Cl)cn3)ccc2F)N=C(N)S[C@@]2(C(F)F)C[C@@H]12` [Example 818, N-(3-((1S,5S,6S)-3-amino-1-(difluoromethyl)-5-methyl-2-thia-4-azabicyclo[4.1.0]hept-3-en-5-yl)-4-fluorophenyl)-5-chloro-2-pyridinecarboxamide], the IC50 at Recombinant Cat D is 152 µM; on human recombinant BACE2 it was less than 0.00203 µM; in assay [1], 0.00164 µM; at human recombinant BACE1 it was 0.000587 µM.

Consider `COC[C@@]12C[C@@H]1[C@@](CF)(c1cc(Nc3nccc4cc(C#N)cnc34)cc(F)c1F)N=C(N)S2` [Example 90, 8-((3-((1R,5S,6R)-3-amino-5-(fluoromethyl)-1-(methoxymethyl)-2-thia-4-azabicyclo[4.1.0]hept-3-en-5-yl)-4,5-difluorophenyl)amino)-1,7-naphthyridine-3-carbonitrile], for which the IC50 was determined as 34.1 µM on Recombinant Cat D (Cathepsin D FRET enzyme assay), 0.0112 µM at human recombinant BACE2 (BACE2 FRET enzyme assay), 0.128 µM in assay [1] (BACE1 cell-based assay) and 0.00682 µM on human recombinant BACE1 (BACE1 FRET enzyme assay).

Regarding `C#C[C@H](C)Oc1cnc(C(=O)Nc2ccc(F)c([C@@]3(C)N=C(N)S[C@@]4(C(=O)NC5CC5)C[C@H]43)c2)cn1` [Example 993, (1S,5S,6S)-3-amino-N-cyclopropyl-5-(2-fluoro-5-(((5-(((1S)-1-methyl-2-propyn-1-yl)oxy)-2-pyrazinyl)carbonyl)amino)phenyl)-5-methyl-2-thia-4-azabicyclo[4.1.0]hept-3-ene-1-carboxamide], the IC50 on Recombinant Cat D was found to be 255 µM; on human recombinant BACE2 it was 0.061 µM; in assay [1], 0.000566 µM; on human recombinant BACE1, 0.00048 µM.

`C#CCOc1cnc2c(Nc3ccc(F)c([C@@]4(CF)N=C(N)S[C@@]5(c6ocnc6C)C[C@@H]45)c3)ncnc2c1` [Example 788, N-(3-((1S,5S,6S)-3-amino-5-(fluoromethyl)-1-(4-methyl-1,3-oxazol-5-yl)-2-thia-4-azabicyclo[4.1.0]hept-3-en-5-yl)-4-fluorophenyl)-7-(2-propyn-1-yloxy)pyrido[3,2-d]pyrimidin-4-amine]: the IC50 stood at 485 µM at Recombinant Cat D, 0.0122 µM on human recombinant BACE2, 0.0161 µM in assay [1] and 0.00127 µM at human recombinant BACE1.

Consider `COC[C@]12C[C@H]1[C@@](C)(c1cc(NC(=O)c3ncc(OCc4ncco4)cc3C)cc(F)c1F)N=C(N)S2` [Example 646, N-(3-((1S,5S,6S)-3-amino-1-(methoxymethyl)-5-methyl-2-thia-4-azabicyclo[4.1.0]hept-3-en-5-yl)-4,5-difluorophenyl)-3-methyl-5-(1,3-oxazol-2-ylmethoxy)-2-pyridinecarboxamide], for which the IC50 was found to be 865 µM on Recombinant Cat D, 0.211 µM on human recombinant BACE2, 0.013 µM in assay [1] and 0.00656 µM on human recombinant BACE1.

Turning to `COC[C@]12C[C@H]1[C@@](C)(c1cc(NC(=O)c3cnc(OCC4CCC4)cn3)ccc1F)N=C(N)S2` [Example 1054, N-(3-((1S,5S,6S)-3-amino-1-(methoxymethyl)-5-methyl-2-thia-4-azabicyclo[4.1.0]hept-3-en-5-yl)-4-fluorophenyl)-5-(cyclobutylmethoxy)-2-pyrazinecarboxamide], the half-maximal inhibitory concentration (IC50) at Recombinant Cat D amounted to 862 µM; on human recombinant BACE2, 0.171 µM; in assay [1], 0.011 µM; at human recombinant BACE1 it was 0.0014 µM.

For the molecule `NC1=N[C@](CF)(c2cc(NC(=O)c3ccc(Cl)cn3)ccc2F)[C@@H]2C[C@]2(c2cnco2)S1` [Example 785, N-(3-((1S,5S,6S)-3-amino-5-(fluoromethyl)-1-(1,3-oxazol-5-yl)-2-thia-4-azabicyclo[4.1.0]hept-3-en-5-yl)-4-fluorophenyl)-5-chloro-2-pyridinecarboxamide], the IC50 was 621 µM on Recombinant Cat D, less than 0.00203 µM on human recombinant BACE2, 0.0102 µM in assay [1] and 0.00112 µM at human recombinant BACE1.

On to `COC[C@@]12SC(N)=N[C@](C)(c3cc(NC(=O)c4ccc(Cl)cn4)ccc3F)[C@@H]1C2(F)F` [Example 710, N-(3-((1S,5S,6R)-3-amino-7,7-difluoro-1-(methoxymethyl)-5-methyl-2-thia-4-azabicyclo[4.1.0]hept-3-en-5-yl)-4-fluorophenyl)-5-chloro-2-pyridinecarboxamide], for which the IC50 on Recombinant Cat D was 379 µM; on human recombinant BACE2 it was less than 0.00203 µM; in assay [1] it was 0.055 µM; on human recombinant BACE1, 0.00599 µM.

As for `C#CCOc1cnc(C(=O)Nc2ccc(F)c([C@@]3(CF)N=C(N)S[C@@]4(CO)C[C@H]43)c2)c(C)n1` [Example 76, N-(3-((1S,5S,6S)-3-amino-5-(fluoromethyl)-1-(hydroxymethyl)-2-thia-4-azabicyclo[4.1.0]hept-3-en-5-yl)-4-fluorophenyl)-3-methyl-5-(2-propyn-1-yloxy)-2-pyrazinecarboxamide], the IC50 on Recombinant Cat D (Cathepsin D FRET enzyme assay) came to 1490 µM; on human recombinant BACE2 (BACE2 FRET enzyme assay), 0.0174 µM; in assay [1] (BACE1 cell-based assay), 0.00271 µM; at human recombinant BACE1 (BACE1 FRET enzyme assay), 0.00095 µM.

With `COc1ncc(NC(=O)c2ccc(Cl)cn2)cc1[C@@]1(C)N=C(N)S[C@@]2(C(F)F)C[C@@H]12` [Example 990, N-(5-((1S,5S,6S)-3-amino-1-(difluoromethyl)-5-methyl-2-thia-4-azabicyclo[4.1.0]hept-3-en-5-yl)-6-methoxy-3-pyridinyl)-5-chloro-2-pyridinecarboxamide], the IC50 worked out at 67 µM at Recombinant Cat D, 0.00465 µM at human recombinant BACE2, 0.026 µM in assay [1] and 0.0208 µM at human recombinant BACE1.

Regarding `C[C@]1(c2cc(Nc3ncnc4cc(Cl)cnc34)cc(F)c2F)N=C(N)S[C@H]2C[C@H]21` [Example 34, N-(3-((1S,5S,6S)-3-amino-5-methyl-2-thia-4-azabicyclo[4.1.0]hept-3-en-5-yl)-4,5-difluorophenyl)-7-chloropyrido[3,2-d]pyrimidin-4-amine], the IC50 came out at 295 µM at Recombinant Cat D (Cathepsin D FRET enzyme assay), 0.0136 µM on human recombinant BACE2 (BACE2 FRET enzyme assay), 0.0317 µM in assay [1] (BACE1 cell-based assay) and 0.0198 µM at human recombinant BACE1 (BACE1 FRET enzyme assay).

For `C#CCOc1cnc(C(=O)Nc2cc(F)c(F)c([C@@]3(C)N=C(N)S[C@@]4(CNC(=O)OC(C)(C)C)C[C@H]43)c2)cn1` [Example 980, tert-butyl(((1S,5S,6S)-3-amino-5-(2,3-difluoro-5-(5-(prop-2-yn-1-yloxy)pyrazine-2-carboxamido)phenyl)-5-methyl-2-thia-4-azabicyclo[4.1.0]hept-3-en-1-yl)methyl)carbamate], the IC50 came out at 19.8 µM on Recombinant Cat D, 0.013 µM at human recombinant BACE2, 0.000747 µM in assay [1] and 0.000455 µM on human recombinant BACE1.

Take `Cc1cc(NC(=O)c2cnc(OCc3ncco3)cn2)cc([C@@]2(C)N=C(N)S[C@@]3(C(F)F)C[C@@H]23)c1F` [Example 1074, N-(3-((1S,5S,6S)-3-amino-1-(difluoromethyl)-5-methyl-2-thia-4-azabicyclo[4.1.0]hept-3-en-5-yl)-4-fluoro-5-methylphenyl)-5-(oxazol-2-ylmethoxy)pyrazine-2-carboxamide]: the IC50 on Recombinant Cat D came out at 1330 µM; at human recombinant BACE2 it was 0.0167 µM; in assay [1] it was 0.000489 µM; on human recombinant BACE1, 0.00057 µM.

On to `CC#C[C@]12C[C@H]1[C@@](CF)(c1cc(Nc3nccc4nc(OCc5ncco5)cnc34)ccc1F)N=C(N)S2` [Example 958, N-(3-((1S,5S,6S)-3-amino-5-(fluoromethyl)-1-(1-propyn-1-yl)-2-thia-4-azabicyclo[4.1.0]hept-3-en-5-yl)-4-fluorophenyl)-2-(1,3-oxazol-2-ylmethoxy)pyrido[3,4-b]pyrazin-5-amine], for which the IC50 at Recombinant Cat D was 354 µM; at human recombinant BACE2, 0.0662 µM; in assay [1] it was 0.04 µM; at human recombinant BACE1, 0.0012 µM.
